# Patent publication US20160022683A1, “COMBINATIONS OF BRUTON'S TYROSINE KINASE INHIBITORS AND CYP3A4 INHIBITORS” (PHARMACYCLICS LLC, priority 2013, published 2016)
# “And” between values parts separate entries of the source, which are not always exact repeats. Identical values can stand only once. Like-named read-outs stand apart in the source and are kept apart here.
# Tests used:
# [1] = healthy subjects
# [2] = clinical; conditions: human, oral, 560 mg
# [3] = for DN*AUC0-24 / DN*AUClast / DN*Cmax / DN* AUC∞: dose normalized
# [4] = clinical; conditions: male, human, plasma, oral, 120 mg
# [5] = clinical; conditions: human, in vivo, oral, spread in brackets; for AUC(0-inf): AUCinf
# [6] = Ibrutinib in plasma, Day 1, 120 mg Ibrutinib alone, geom. mean
# [7] = Ibrutinib in plasma, Day 1, 120 mg Ibrutinib alone, mean
# [8] = Ibrutinib in plasma, Day 1, 120 mg Ibrutinib alone, median
# [9] = Ibrutinib in plasma, Day 1, 120 mg Ibrutinib alone, n=12, geom. mean
# [10] = Ibrutinib in plasma, Day 1, 120 mg Ibrutinib alone, n=12, mean
# [11] = Ibrutinib in plasma, Day 1, 120 mg Ibrutinib alone, not dose normalized, mean
# [12] = Ibrutinib in plasma, Day 7, 40 mg Ibrutinib + ketoconazole, geom. mean
# [13] = Ibrutinib in plasma, Day 7, 40 mg Ibrutinib + ketoconazole, mean
# [14] = Ibrutinib in plasma, Day 7, 40 mg Ibrutinib + ketoconazole, median
# [15] = 560 mg, Ibrutinib 560 mg alone, fasted, n=8
# [16] = 560 mg, Ibrutinib 560 mg alone, fed, n=8
# [17] = Ibrutinib 140 mg + grapefruit juice, fed, n=8
# [18] = PCI-45227 in plasma, Day 1, 120 mg Ibrutinib alone, geom. mean
# [19] = PCI-45227 in plasma, Day 1, 120 mg Ibrutinib alone, mean
# [20] = PCI-45227 in plasma, Day 1, 120 mg Ibrutinib alone, median
# [21] = PCI-45227 in plasma, Day 1, 120 mg Ibrutinib alone, not dose normalized, mean
# [22] = PCI-45227 in plasma, Day 7, 40 mg Ibrutinib + ketoconazole, geom. mean
# [23] = PCI-45227 in plasma, Day 7, 40 mg Ibrutinib + ketoconazole, mean
# [24] = PCI-45227 in plasma, Day 7, 40 mg Ibrutinib + ketoconazole, median
structure (smiles),measurement,setting,value
"C=CC(=O)N1CCC[C@@H](n2nc(-c3ccc(Oc4ccccc4)cc3)c3c(N)ncnc32)C1 [Ibrutinib, 1-((R)-3-(4-amino-3-(4-phenoxyphenyl)-1H-pyrazolo[3,4-d]pyrimidin-1-yl)-piperidin-1-yl)prop-2-en-1-one]",Ibrutinib systemic exposure when dosed concomitantly with rifampin,[1],significantly affected
same,AUC(0-t),[2]; blood,259 ng·h/mL
same,Cmax,[2]; blood,42 ng/mL
same,AUC(0-inf),[2]; in vivo,397 ng·h/mL
same,DN*AUC0-24,[3]; [6],18.7 ng·h/mL
same,DN*AUClast,[3]; [6],20.4 ng·h/mL
same,DN*Cmax,[3]; [6],3.33 ng/mL
same,DN*AUC0-24,[3]; [7],21.3 ng·h/mL
same,DN*AUClast,[3]; [7],23.8 ng·h/mL
same,DN*Cmax,[3]; [7],3.92 ng/mL
same,DN*AUC0-24,[3]; [8],18.5 ng·h/mL
same,DN*AUClast,[3]; [8],19.2 ng·h/mL
same,DN*Cmax,[3]; [8],3.57 ng/mL
same,DN* AUC∞,[3]; [9],23.7 ng·h/mL
same,DN* AUC∞,[3]; [10],28.1 ng·h/mL
same,tlast,[3]; [6],30.93 h
same,tlast,[3]; [7],34.00 h
same,tlast,[3]; [8],24.01 h
same,AUMC∞,[3]; [9],576 h · h · ng/mL
same,MRT,[3]; [9],8.11 h
same,AUMC∞,[3]; [10],857 h · h · ng/mL
same,MRT,[3]; [10],8.93 h
same,AUMC∞,"[3]; Ibrutinib in plasma, Day 1, 120 mg Ibrutinib alone, n=12, median",693 h · h · ng/mL
same,AUC0-24,[3]; [11],63.8 ng·h/mL
same,Cmax,[3]; [11],11.8 ng/mL
same,AUC0-24,[3]; [12],464 ng·h/mL
same,AUClast,[3]; [12],488 ng·h/mL
same,AUC∞,[3]; [12],491 ng·h/mL
same,AUMC∞,[3]; [12],3235 h · h · ng/mL
same,Cmax,[3]; [12],95.2 ng/mL
same,MRT,[3]; [12],6.6 h
same,tlast,[3]; [12],40.51 h
same,AUC0-24,[3]; [13],510 ng·h/mL
same,AUClast,[3]; [13],533 ng·h/mL
same,AUC∞,[3]; [13],536 ng·h/mL
same,AUMC∞,[3]; [13],3504 h · h · ng/mL
same,Cmax,[3]; [13],108 ng/mL
same,MRT,[3]; [13],6.8 h
same,tlast,[3]; [13],42.68 h
same,AUClast,[3]; [14],559 ng·h/mL
same,AUMC∞,[3]; [14],3635 h · h · ng/mL
same,tlast,[3]; [14],48.00 h
same,Ibrutinib systemic exposure when dosed concomitantly with ketoconazole,[3]; healthy subjects,significantly affected
same,AUC(0-inf),[4],22.4 ng·h/mL
same,MRT,[4],9.13 h
same,AUC(0-t),"[5]; 560 mg, AUC0-24 h, Ibrutinib 560 mg alone, fasted, n=8",229 ng·h/mL
same,AUC(0-t),"[5]; 560 mg, AUC0-24 h, Ibrutinib 560 mg alone, fed, n=7",544 ng·h/mL
same,AUC(0-inf),[5]; [15],368 ng·h/mL
same,AUC(0-inf),[5]; [16],659 ng·h/mL
same,AUC(0-t),"[5]; 560 mg, AUClast, Ibrutinib 560 mg alone, fasted, n=8",289 ng·h/mL
same,AUC(0-t),"[5]; 560 mg, AUClast, Ibrutinib 560 mg alone, fed, n=8",606 ng·h/mL
same,Cmax,[5]; [15],245 ng/mL
same,Cmax,[5]; [16],128 ng/mL
same,AUC(0-t),"[5]; AUC0-24 h, Ibrutinib 140 mg + grapefruit juice, fed, n=7",339 ng·h/mL
same,AUC(0-inf),[5]; [17],334 ng·h/mL
same,AUC(0-t),"[5]; AUClast, Ibrutinib 140 mg + grapefruit juice, fed, n=8",325 ng·h/mL
same,Cmax,[5]; [17],125 ng/mL
Nc1ncnc2c1c(-c1ccc(Oc3ccccc3)cc1)nn2[C@@H]1CCCN(C(=O)C(O)CO)C1 (some centres unmarked) [PCI-45227],DN* AUC∞,[3]; [18],98.2 ng·h/mL
same,DN*AUC0-24,[3]; [18],76.6 ng·h/mL
same,DN*AUClast,[3]; [18],96.4 ng·h/mL
same,DN*Cmax,[3]; [18],8.81 ng/mL
same,DN* AUC∞,[3]; [19],103 ng·h/mL
same,DN*AUC0-24,[3]; [19],82.2 ng·h/mL
same,DN*AUClast,[3]; [19],101 ng·h/mL
same,DN*Cmax,[3]; [19],9.70 ng/mL
same,DN* AUC∞,[3]; [20],101 ng·h/mL
same,DN*AUC0-24,[3]; [20],81.3 ng·h/mL
same,DN*AUClast,[3]; [20],100 ng·h/mL
same,DN*Cmax,[3]; [20],9.45 ng/mL
same,AUMC∞,[3]; [18],4122 h · h · ng/mL
same,CL/F,[3]; [18],407 L/h
same,MRT,[3]; [18],14.0 h
same,T½ term,[3]; [18],11.2 h
same,tlast,[3]; [18],65.80 h
same,tmax,[3]; [18],2.25 h
same,λz,[3]; [18],0.0619 h⁻¹
same,AUMC∞,[3]; [19],4297 h · h · ng/mL
same,CL/F,[3]; [19],428 L/h
same,MRT,[3]; [19],14.3 h
same,T½ term,[3]; [19],11.41 h
same,tlast,[3]; [19],66.7 h and 66.67 h
same,tmax,[3]; [19],2.42 h
same,λz,[3]; [19],0.0630 h⁻¹
same,AUMC∞,[3]; [20],3979 h · h · ng/mL
same,CL/F,[3]; [20],395 L/h
same,MRT,[3]; [20],13.6 h
same,T½ term,[3]; [20],10.74 h
same,tlast,[3]; [20],72.00 h
same,tmax,[3]; [20],2.00 h
same,λz,[3]; [20],0.0645 h⁻¹
same,AUC0-24,[3]; [21],247 ng·h/mL
same,Cmax,[3]; [21],29.1 ng/mL
same,AUC0-24,[3]; [22],53.4 ng·h/mL
same,AUClast,[3]; [22],82.7 ng·h/mL
same,AUC∞,[3]; [22],89.4 ng·h/mL
same,AUMC∞,[3]; [22],2216 h · h · ng/mL
same,CL/F,[3]; [22],448 L/h
same,Cmax,[3]; [22],3.63 ng/mL
same,MRT,[3]; [22],24.8 h
same,T½ term,[3]; [22],17.49 h
same,tlast,[3]; [22],67.30 h
same,tmax,[3]; [22],3.77 h
same,λz,[3]; [22],0.0396 h⁻¹
same,AUC0-24,[3]; [23],54.5 ng·h/mL
same,AUClast,[3]; [23],85.2 ng·h/mL
same,AUC∞,[3]; [23],92.2 ng·h/mL
same,AUMC∞,[3]; [23],2416 h · h · ng/mL
same,CL/F,[3]; [23],461 L/h
same,Cmax,[3]; [23],3.71 ng/mL
same,MRT,[3]; [23],25.4 h
same,T½ term,[3]; [23],17.99 h
same,tlast,[3]; [23],68.01 h
same,tmax,[3]; [23],3.95 h
same,λz,[3]; [23],0.0407 h⁻¹
same,AUC0-24,[3]; [24],53.8 ng·h/mL
same,AUClast,[3]; [24],82.7 ng·h/mL
same,AUC∞,[3]; [24],89.6 ng·h/mL
same,AUMC∞,[3]; [24],2177 h · h · ng/mL
same,CL/F,[3]; [24],447 L/h
same,Cmax,[3]; [24],3.74 ng/mL
same,MRT,[3]; [24],24.8 h
same,T½ term,[3]; [24],16.61 h
same,tlast,[3]; [24],72.00 h
same,tmax,[3]; [24],4.00 h
same,λz,[3]; [24],0.0417 h⁻¹
